According to US20190048054A1, “Mesenchymal Stem Cells Expressing Biomarkers that Predict the Effectiveness of Mesenchymal Stem Cells for Treating Diseases and Disorders” (priority 2014, published 2019):

Columns and labels:
hMSCs = experiment: Cell viability of hMSCs after estradiol treatment (photographs); type: cell-based, human; settings: estradiol treatment for 4 days (FIG. 2C)
[1] = tested on: animal models for human diseases; settings: administration of recombinant TSG-6; cited from earlier work

Molecule | cell viability (hMSCs) | beneficial effects compared with hMSCs [1]
C[C@]12CC[C@@H]3c4ccc(O)cc4CC[C@H]3[C@@H]1CC[C@@H]2O [estradiol] | without affecting cell viability | –
recombinant TSG-6: naturally occurring anti-inflammatory protein of 35 kDa, SEQ ID NO: 1; given as recombinant protein | – | reproduced most of the beneficial effects of the hMSCs
